Test results as given in US20120034613A1, “Apparatus and Method for Testing Relationships Between Gene Expression and Physical Appearance of Skin” (NSE Products, Inc., priority 2010, published 2012).

System: EpidermFT™ Skin Model (EFT-400) full thickness skin cultures
Experiment: Affymetrix GeneChip HG U133 Plus 2.0 microarray global gene expression, agent-exposed vs untreated skin cultures
Format: cell-based, human
Details: for Direction / Fold change: Salicin 0.5%
[1] = Salicin 0.5% vs Untreated Control, 24 hr

OCc1ccccc1O[C@@H]1O[C@H](CO)[C@@H](O)[C@H](O)[C@H]1O [Salicin, 2-(Hydroxymethyl)phenyl β-D-glucospyranoside]
2.098: Fold change (1559477_s_at MEIS1, 24 hr)
down: Direction ABCD3 (202850_at) [1] | Direction ABCG4 (207593_at) [1] | Direction ACACA (212186_at) [1] | Direction ACAD9 (224160_s_at) [1] | Direction ACOX3 (204241_at) [1] | Direction ADAMTSL4 (226071_at) [1] | Direction ADARB1 (203865_s_at) [1] | Direction AHNAK (211986_at) [1] | Direction AIF1L (223075_s_at) [1] | Direction AK1 (202587_s_at) [1] | Direction AK3L1 /// AK3L2 (204347_at) [1] | Direction ALDH5A1 (203609_s_at) [1] | Direction ALOX12 (207206_s_at) [1] | Direction AMACR (209426_s_at) [1] | Direction AMOTL2 (203002_at) [1] | Direction ANK3 (207950_s_at) [1] | Direction APPL2 (218218_at) [1] | Direction AQP3 (203747_at) [1] | Direction ARHGAP27 (225618_at) [1] | Direction ARL17 /// ARL17P1 (1555964_at) [1] | Direction ARPC1A (200950_at) [1] | Direction ASAP3 (222236_s_at) [1] | Direction ATP2B4 (212136_at) [1] | Direction ATXN3 (205416_s_at) [1] | Direction BAIAP2 (205293_x_at) [1] | Direction BCL11A (1559078_at) [1] | Direction BCL11B (222895_s_at) [1] | Direction BICD2 (1553021_s_at) [1] | Direction BLCAP (201032_at) [1] | Direction C1orf46 (216718_at) [1] | Direction C1orf71 (225551_at) [1] | Direction C1orf97 (224443_at) [1] | Direction C2orf7 (223312_at) [1] | Direction C4orf3 (224605_at) [1] | Direction C6orf105 (215100_at) [1] | Direction C12orf29 (228378_at) [1] | Direction C15orf52 (227272_at) [1] | Direction C17orf67 (236863_at) [1] | Direction C20orf177 (225313_at) [1] | Direction CALM1 /// CALM2 /// CALM3 (200653_s_at) [1] | Direction CALM1 /// CALM2 /// CALM3 (209563_x_at) [1] | Direction CAT (211922_s_at) [1] | Direction CENPT (218148_at) [1] | Direction CEP76 (52285_f_at) [1] | Direction CERK (218421_at) [1] | Direction CKB (200884_at) [1] | Direction CLCN5 (232127_at) [1] | Direction CLDN7 (202790_at) [1] | Direction CLIP1 (1558924_s_at) [1] | Direction CLN8 (229958_at) [1] | Direction CNDP2 (217752_s_at) [1] | Direction CNTN1 (211203_s_at) [1] | Direction CSNK2A2 (203575_at) [1] | Direction CTAGE4 (215549_x_at) [1] | Direction CXCL12 (203666_at) [1] | Direction CYB5R1 (202263_at) [1] | Direction CYCS (244546_at) [1] | Direction DBI (211070_x_at) [1] | Direction DDR1 (1007_s_at) [1] | Direction DDX50 (1568815_a_at) [1] | Direction DHRS4 /// DHRS4L2 (218021_at) [1] | Direction DMD (203881_s_at) [1] | Direction DOPEY2 (205248_at) [1] | Direction ELOVL3 (234513_at) [1] | Direction EPCAM (201839_s_at) [1] | Direction EPHB4 (202894_at) [1] | Direction EPHB6 (204718_at) [1] | Direction ERI2 (213365_at) [1] | Direction F2RL1 (206429_at) [1] | Direction FAM33A (225684_at) [1] | Direction FAR1 (224865_at) [1] | Direction FBXO3 (229955_at) [1] | Direction FBXO3 (238686_at) [1] | Direction FBXO9 (212991_at) [1] | Direction FBXO9 (1559094_at) [1] | Direction FIGNL1 (222843_at) [1] | Direction FKBP1B (206857_s_at) [1] | Direction FKBPL (219187_at) [1] | Direction FRAG1 (41858_at) [1] | Direction FUCA1 (202838_at) [1] | Direction FUT2 (210608_s_at) [1] | Direction GAB1 (225998_at) [1] | Direction GAS7 (202192_s_at) [1] | Direction GDAP1 (226269_at) [1] | Direction GNG4 (205184_at) [1] | Direction GPR1 (214605_x_at) [1] | Direction GPR137B (204137_at) [1] | Direction GSN (200696_s_at) [1] | Direction HES5 (239230_at) [1] | Direction HIGD1A (217845_x_at) [1] | Direction HN1 (222396_at) [1] | Direction HN1L (212115_at) [1] | Direction HSDL2 (209512_at) [1] | Direction ID2 (201565_s_at) [1] | Direction IDH2 (210045_at) [1] | Direction IL22RA1 (220056_at) [1] | Direction INPP5D (203332_s_at) [1] | Direction ITGA3 (201474_s_at) [1] | Direction JAG1 (209099_x_at) [1] | Direction JAG1 (216268_s_at) [1] | Direction JMJD7 /// JMJD7-PLA2G4B /// PLA2G4B (222256_s_at) [1] | Direction KCNK7 (224055_x_at) [1] | Direction KCTD15 (222668_at) [1] | Direction KIF1B (209234_at) [1] | Direction KIF1B (225878_at) [1] | Direction KLK1 (216699_s_at) [1] | Direction KRT5 (201820_at) [1] | Direction KRT6A (209125_at) [1] | Direction KRT10 (207023_x_at) [1] | Direction KRTCAP3 (235148_at) [1] | Direction LMNA (212089_at) [1] | Direction LMNA (1554600_s_at) [1] | Direction LMNB1 (203276_at) [1] | Direction LOC284837 (1563088_a_at) [1] | Direction LOC286440 (209733_at) [1] | Direction LOC400027 (226413_at) [1] | Direction LOC401233 (1558882_at) [1] | Direction LOC648245 (227739_at) [1] | Direction LOC652968 (233528_s_at) [1] | Direction LOC727820 (227384_s_at) [1] | Direction LOC100128443 /// MAST4 (210958_s_at) [1] | Direction LOC100128822 (235174_s_at) [1] | Direction LOC100130837 (242255_at) [1] | Direction LOC100131262 (1558152_at) [1] | Direction LOC100131851 /// LOC100134497 /// LOC401002 /// LOC646674 /// SSBP3 (222482_at) [1] | Direction LOC100133772 /// SLC16A5 (206600_s_at) [1] | Direction LOC100134937 (229685_at) [1] | Direction LPHN1 (47560_at) [1] | Direction LY75 (205668_at) [1] | Direction LYSMD4 (228954_at) [1] | Direction MAFB (218559_s_at) [1] | Direction MAPRE2 (202501_at) [1] | Direction MEGF9 (212831_at) [1] | Direction MFAP5 (213764_s_at) [1] | Direction MIB2 (226644_at) [1] | Direction MPP7 (238451_at) [1] | Direction MTHFR (226929_at) [1] | Direction MTMR1 (214975_s_at) [1] | Direction MUC1 (213693_s_at) [1] | Direction MYO18A /// TIAF1 (202039_at) [1] | Direction NBEAL2 (212443_at) [1] | Direction NCF2 (209949_at) [1] | Direction NCRNA00086 (238697_at) [1] | Direction PAIP1 (208051_s_at) [1] | Direction PAIP2B (221868_at) [1] | Direction PAWR (204005_s_at) [1] | Direction PAWR (229515_at) [1] | Direction PDIK1L (227255_at) [1] | Direction PERP (217744_s_at) [1] | Direction PIGW (1558292_s_at) [1] | Direction PLEKHA2 (225136_at) [1] | Direction PLS3 (201215_at) [1] | Direction PNMA2 (209598_at) [1] | Direction POLE2 (205909_at) [1] | Direction POLH (231115_at) [1] | Direction POLR3B (219459_at) [1] | Direction POU3F1 (208345_s_at) [1] | Direction PPAP2C (209529_at) [1] | Direction PPP1CB (201409_s_at) [1] | Direction PPP2CA (208652_at) [1] | Direction PRDX2 (39729_at) [1] | Direction PRKX (204061_at) [1] | Direction PTCH1 (209815_at) [1] | Direction PTGFR (1555097_a_at) [1] | Direction PVRL1 (225211_at) [1] | Direction RAB7B (1553982_a_at) [1] | Direction RAPGEFL1 (218657_at) [1] | Direction RHOV (241990_at) [1] | Direction RICS (203431_s_at) [1] | Direction RNF170 (226104_at) [1] | Direction RORA (235567_at) [1] | Direction RPS6KA5 (204633_s_at) [1] | Direction RPS6KB2 (203777_s_at) [1] | Direction SCRN3 (222849_s_at) [1] | Direction SDCCAG8 (243963_at) [1] | Direction SEMA4D (203528_at) [1] | Direction SERPINB1 (213572_s_at) [1] | Direction SETBP1 (227478_at) [1] | Direction SHROOM2 (204967_at) [1] | Direction SLC5A3 (212944_at) [1] | Direction SLC24A3 (219090_at) [1] | Direction SLC45A4 (225598_at) [1] | Direction SLCO3A1 (219229_at) [1] | Direction SMAP2 (225282_at) [1] | Direction SMCR7 (235896_s_at) [1] | Direction SNX21 (1553960_at) [1] | Direction SNX24 (218705_s_at) [1] | Direction SORD (201563_at) [1] | Direction ST8SIA4 (230836_at) [1] | Direction STK24 (208854_s_at) [1] | Direction SYNGR2 (201079_at) [1] | Direction TANC1 (225308_s_at) [1] | Direction TCEA3 (226388_at) [1] | Direction TCHP (223455_at) [1] | Direction TGOLN2 (1554608_at) [1] | Direction THBD (203888_at) [1] | Direction TIMM22 (219184_x_at) [1] | Direction TMC5 (222904_s_at) [1] | Direction TMEM19 (226860_at) [1] | Direction TMEM45A (219410_at) [1] | Direction TMEM50B (225182_at) [1] | Direction TMEM80 (65630_at) [1] | Direction TP53I3 (210609_s_at) [1] | Direction TRAF3IP2 (202987_at) [1] | Direction TRIM2 (202342_s_at) [1] | Direction TTC30B (1554588_a_at) [1] | Direction VPS4B (218171_at) [1] | Direction WNK1 (39313_at) [1] | Direction WNK1 (211993_at) [1] | Direction ZBTB1 (1557036_at) [1] | Direction ZDHHC21 (241946_at) [1] | Direction ZFYVE21 (219929_s_at) [1] | Direction ZHX1 (223213_s_at) [1] | Direction ZHX1 (223214_s_at) [1] | Direction ZNF85 (1554445_at) [1] | Direction ZNF561 (235200_at) [1] | Direction ZNF589 (219968_at) [1] | Direction ZNF823 (229732_at) [1]
up: Direction (1554602_at RBM8A, 24 hr) | Direction (1555270_a_at WFS1, 24 hr) | Direction (1559477_s_at MEIS1, 24 hr) | Direction (1561042_at ITGB1, 24 hr) | Direction ABHD2 (205566_at) (Salicin 0.5% vs Untreated Control, 24 hr treatment)
2.141: Fold change (1554602_at RBM8A, 24 hr)
2.096: Fold change (1555270_a_at WFS1, 24 hr)
2.151: Fold change (1561042_at ITGB1, 24 hr)
